From patent publication US20180369342A1, “CARDIAC METABOLIC EFFECT OF LANTUS” (Sanofi-Aventis Deutschland GmbH, priority 2015, published 2018)
“Also recorded” adds a separate entry of the source.

Columns and labels:
C57bl/6 mouse hearts = assay: Isolated working heart perfusion, cardiac energy metabolism (acute treatment), C57bl/6; conditions: for % ATP from glucose oxidation / % ATP from palmitate oxidation / cardiac efficiency: C57bl/6 mouse hearts; for glucose oxidation / palmitate oxidation: isolated working C57bl/6 mouse hearts, 10 wk old
Experimental: (§1) The effect of three different types of insulin, human insulin, insulin degludec, and the M1 metabolite of insulin glargine, on cardiac metabolism was determined in adult, 10 weeks old mice using either healthy C57Bl6 wildtype mice or Type-2 diabetes db/db mice. Mice were fed a standard chow diet and kept in 12 hr light: 12 hr dark cycle. To test their acute effect energy metabolism, hearts were removed from fully anesthetized mice, and perfused as isolated working hearts with Krebs Henseleit buffer (118.5 mM NaCl, 1.2 mM MgSO4, 25 mM NaHCO3, 4.7 mM KCl, 1.2 mM KH2PO4, 2.5 mM CaCl2) supplemented with 0.8 mM palmitate bound to 3% fatty acid-free bovine serum albumin (BSA), 5 mM glucose, and 0.5 mM lactate. Hearts underwent aerobic perfusion for 72 min with vehicle or increasing amounts of insulin (0, 25, 50, 100 μU/ml), insulin Degludec (0, 100, 300, 1000 μU/ml), or the M1 metabolite of insulin Glargine (0, 25, 50, 100 μU/ml). Each concentration escalation step lasted 18 minutes. At the end of the heart perfusion hearts were immediately snap frozen in liquid N2 and stored at −80° C. See FIG. 1 In order to measure glucose oxidation, glycolysis, palmitate oxidation, and lactate oxidation [U-^14C] glucose, [5-^3H] glucose, [9, 10-^3H] palmitate, and [U-^14C] lactate, respectively, were added to the perfusate as described above in Example 1. Glycolysis and palmitate oxidation rates were determined based on the rates of ^3H2O production. To determine glucose oxidation and lactate oxidation rates ^14CO2 production was assessed.

db/db mouse hearts = assay: Isolated working heart perfusion, cardiac energy metabolism (acute treatment), db/db; conditions: for glucose oxidation / palmitate oxidation: isolated working db/db mouse hearts, 10 wk old
Experimental: as §1

db/db mice [1] = assay: Chronic treatment of db/db mice: blood glucose and glucose tolerance; type: in vivo, mouse; conditions: 18 week old db/db mice; for blood glucose levels: 5 U/kg BW daily, data not shown; for blood glucose tolerance: 150 U/kg BW daily for 4 weeks
Experimental: (§2) In a second set 18 week old db/db mice were treated with vehicle, NPH insulin, Degludec, or Lantus daily for 4 weeks (see FIG. 8). 18 wk old db/db mice were specifically used because by this age they have a diastolic dysfunction. The original protocol involved treating the mice with either NPH insulin (5 U/kg BW), Degludec (5 U/kg BW), or Lantus (5 U/kg BW). […] Other groups have reported that a higher dose of insulin is required to control hyperglycemia in db/db mice. The highest dose that had been reported to be safe, was 150 U/kg BW, which was then used for future experiments. Treating the mice with 150 U/kg BW of NPH insulin, Degludec, or Lantus improved blood glucose tolerance much more dramatically (FIG. 9). At the end of the 4 week treatment period, the cardiac energy metabolism and function was assessed via echocardiography. The Vevo 770 high resolution echocardiography imaging system was used to assess in vivo cardiac function was assessed in isoflurane anesthetized mice.

Akt = assay: Western Blot Analysis of cardiac Akt phosphorylation after acute treatment; conditions: db/db mouse hearts
Experimental: The phosphorylation status of several enzymes involved in insulin signaling were also assessed in the C57bl/6 and db/db mouse hearts treated acutely with insulin, Degludec, or Lantus, via Western Blot Analysis. Frozen heart issue was homogenized for 30 sec in homogenization buffer (50 mM Tris HCl, 10% glycerol, 1 mM EDTA, 0.02% Brij-35, 1 mM DTT, and protease and phosphatase inhibitors (Sigma)). After sitting on ice at least 10 min, tissue homogenates were centrifuged at 10,000×g for 20 min. The supernatant was then stored at −80° C. Protein concentration of supernatant was determined using the Bradford protein assay. After running samples on SDS-polyacrylamide gel electrophoresis, protein was transferred onto nitrocellulose membrane. Primary antibodies included pAkt Ser473 (Cell Signaling 9271), Akt (Cell Signaling 9272), pGSK3α/β Ser21/9 (Cell Signaling 9331), GSK3β (Cell Signaling 9315), pPDH Ser293 (Calbiochem AP1062), and PDH (Cell Signaling 2784). Protein bands were visualized on autoradiography film using enhanced chemiluminescence (Perkin Elmer) and quantified with Image J.

db/db mice [2] = assay: Chronic treatment of db/db mice: in vivo cardiac function by echocardiography; design: species or system mouse; conditions: chronic treatment 4 weeks
Experimental: The long-term effects of insulin treatment on cardiac function was assessed in two different settings. In acute treatments, measurements were performed in isolated working hearts from either wildtype mice (C57Bl) or mice with a diabetes type-2 phenotype (db/db mice). In a second chronic setting, db/db animals were treated for 4 weeks with daily administration of different high doses of insulins to achieve similar effects on systemic hypergycaemia. At the end of the chronic study, effects on cardiac function was assessed by echocardiography.
as §2

Substance	% ATP from glucose oxidation (C57bl/6 mouse hearts) [%]	% ATP from palmitate oxidation (C57bl/6 mouse hearts) [%]	glucose oxidation (C57bl/6 mouse hearts)	palmitate oxidation (C57bl/6 mouse hearts)	% ATP from glucose oxidation (db/db mouse hearts; db/db mouse hearts) [%]	% ATP from palmitate oxidation (db/db mouse hearts; db/db mouse hearts) [%]	glucose oxidation (db/db mouse hearts)	palmitate oxidation (db/db mouse hearts)	blood glucose levels (db/db mice [1])	blood glucose tolerance (db/db mice [1])	cardiac efficiency (C57bl/6 mouse hearts)	cardiac efficiency (db/db mouse hearts; db/db mouse hearts)	pAkt (Akt)	cardiac output (db/db mice [2])	cardiac stroke volume (db/db mice [2])	in vivo cardiac function (db/db mice [2])	in vivo cardiac function (db/db mice [2]; listed as lantus)
Degludec	12	62	not	not	5	75	not	not	did not reduce	improved							
Gly (A21) human insulin [M1-metabolite of insulin glargine]			able to stimulate	inhibit			able to stimulate	inhibit			improved	improved					
Gly (A21), Arg (B31), Arg (B32) human insulin [Lantus]	30	37	stimulates	decreases	14	56	stimulates	decreases	did not reduce	improved	improves		significantly increased	significantly increased; also recorded: improved	significantly increased; also recorded: improved	improved	improves
NPH insulin: long acting basal insulin									did not reduce	improved							
insulin: human insulin	18	55			13	53											
